These are literature values, as cited in US20250354118A1, “COMPOSITIONS AND METHODS FOR NK CELL DIFFERENTIATION” (Umoja Biopharma, Inc., priority 2022, published 2025).

This data set has as its target PSMA-positive human prostate cancer cells (Homo sapiens, UniProt Q04609). As to conditions: Kularatne et al., Mol Pharm. 2009.

PSMA-positive human prostate cancer cells, sequence (Q04609 whole entry): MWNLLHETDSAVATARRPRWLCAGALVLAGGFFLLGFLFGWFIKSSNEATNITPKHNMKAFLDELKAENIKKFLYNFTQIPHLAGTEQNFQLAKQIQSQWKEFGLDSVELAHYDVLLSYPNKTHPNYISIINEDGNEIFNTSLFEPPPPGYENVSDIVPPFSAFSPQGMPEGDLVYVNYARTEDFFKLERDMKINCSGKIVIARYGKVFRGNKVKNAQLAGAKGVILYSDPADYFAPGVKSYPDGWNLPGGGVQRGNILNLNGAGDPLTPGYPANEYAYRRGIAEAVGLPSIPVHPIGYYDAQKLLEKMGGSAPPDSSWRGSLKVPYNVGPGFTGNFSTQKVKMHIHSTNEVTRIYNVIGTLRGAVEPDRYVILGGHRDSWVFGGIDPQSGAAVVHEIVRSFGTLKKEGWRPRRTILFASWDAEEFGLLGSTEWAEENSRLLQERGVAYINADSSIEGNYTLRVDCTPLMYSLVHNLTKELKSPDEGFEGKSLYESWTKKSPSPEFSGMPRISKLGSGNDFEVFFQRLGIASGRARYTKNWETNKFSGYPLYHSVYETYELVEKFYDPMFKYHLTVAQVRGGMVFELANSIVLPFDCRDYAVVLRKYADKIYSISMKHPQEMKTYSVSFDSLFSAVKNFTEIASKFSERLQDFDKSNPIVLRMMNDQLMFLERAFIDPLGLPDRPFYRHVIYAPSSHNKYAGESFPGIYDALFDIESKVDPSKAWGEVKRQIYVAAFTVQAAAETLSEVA

As usually defined, the Kd is the concentration at which binding is half-saturated. Regarding `O=C(O)CC[C@H](NC(=O)N[C@@H](CCC(=O)O)C(=O)O)C(=O)O` [DUPA], the Kd was 14 nM.
